This is an account of results in PubChem BioAssay AID280 (DTP/NCI, 2004).

Where “and” joins values, the source holds several entries; their conditions need not be identical. Equal values may be shown once. Toxic doses and inconclusive results are not listed.

This test concerns nude mice, LOX melanoma ip, survival T/C. The experiment in a line: NCI In Vivo Anticancer Drug Screen. Data for tumor model Human Amelanotic Melanoma (LOX) (intraperitoneal) in NU/NU BALB/C (nude) mice. As to conditions: endpoint: median survival time, higher = longer survival. The procedure:
The antitumor activity of compounds was measured in mice bearing transplantable tumors. Survival or tumor size were measured and the results are expressed as the measurement made in the treated group (T) divided by the measurement made in the vehicle treated control group (C). The tumor model used in this assay is Human Amelanotic Melanoma (LOX) (intraperitoneal) in NU/NU BALB/C (nude) mice

Where [1] appears, read: dose: 75.0 mg/kg/injection, schedule: Q04DX003 (ip), vehicle: saline with Tween-80.
Where [2] appears, read: dose: 50.0 mg/kg/injection, schedule: Q04DX003 (ip), vehicle: saline with Tween-80.
Setting [3] is: dose: 100.0 mg/kg/injection, schedule: Q04DX003 (ip), vehicle: saline with Tween-80.
[4] abbreviates: dose: 200.0 mg/kg/injection, schedule: Q04DX003 (ip), vehicle: saline with Tween-80.
Setting [5] is: dose: 400.0 mg/kg/injection, schedule: Q04DX003 (ip), vehicle: saline with Tween-80.
Setting [6] is: dose: 25.0 mg/kg/injection, schedule: Q04DX003 (ip), vehicle: saline with Tween-80.

On to `O=C1c2cccc(NCCCNCCO)c2C(=O)c2cccc(NCCCNCCO)c21`, for which the T/C is 116 % of control (dose: 4.69 mg/kg/injection, schedule: Q04DX003 (ip), vehicle: saline); 113 % of control and 97 % of control (dose: 6.75 mg/kg/injection, schedule: Q04DX003 (ip), vehicle: acid diluted with saline); 124 % of control (dose: 9.38 mg/kg/injection, schedule: Q04DX003 (ip), vehicle: saline); 117 % of control (dose: 11.0 mg/kg/injection, schedule: Q04DX003 (ip), vehicle: acid diluted with saline); 97 % of control (dose: 11.25 mg/kg/injection, schedule: Q04DX003 (ip), vehicle: acid diluted with saline); 111 % of control (dose: 18.7 mg/kg/injection, schedule: Q04DX003 (ip), vehicle: acid diluted with saline). Further, the T/C by setting is: (dose: 18.75 mg/kg/injection, schedule: Q04DX003 (ip), vehicle: acid diluted with saline) 106 % of control; (dose: 31.25 mg/kg/injection, schedule: Q04DX003 (ip), vehicle: acid diluted with saline) 112 % of control; (dose: 37.5 mg/kg/injection, schedule: Q04DX003 (ip), vehicle: saline) 105 % of control; (dose: 75.0 mg/kg/injection, schedule: Q04DX003 (ip), vehicle: saline) 86 % of control.

Consider `O=C(NC(Cc1ccc(I)cc1)C(=O)O)c1cccc(Br)c1` (stereo not given), for which the T/C is, setting by setting: (dose: 50.0 mg/kg/injection, schedule: Q04DX003 (ip), vehicle: Klucel (hydroxypropylcellulose) (HPC)) 112 % of control; (dose: 75.0 mg/kg/injection, schedule: Q04DX003 (ip), vehicle: Klucel (hydroxypropylcellulose) (HPC)) 105 % of control; (dose: 100.0 mg/kg/injection, schedule: Q04DX003 (ip), vehicle: Klucel (hydroxypropylcellulose) (HPC)) 112 % of control; (dose: 150.0 mg/kg/injection, schedule: Q04DX003 (ip), vehicle: Klucel (hydroxypropylcellulose) (HPC)) 89 % of control; (dose: 200.0 mg/kg/injection, schedule: Q04DX003 (ip), vehicle: Klucel (hydroxypropylcellulose) (HPC)) 103 % of control; (dose: 300.0 mg/kg/injection, schedule: Q04DX003 (ip), vehicle: Klucel (hydroxypropylcellulose) (HPC)) 96 % of control. For the same compound, the T/C (dose: 400.0 mg/kg/injection, schedule: Q04DX003 (ip), vehicle: Klucel (hydroxypropylcellulose) (HPC)) was 87 % of control.

On to `COc1cccc2c1C(=O)c1c(O)c3c(c(O)c1C2=O)C[C@@](O)(C(=O)CO)C[C@@H]3OC1CC(N)C(O)C(C)O1` (stereo not given in full), for which the T/C reads like this: (dose: 0.25 mg/kg/injection, schedule: Q01DX015 (ip), vehicle: water) 162 % of control; (dose: 0.5 mg/kg/injection, schedule: Q01DX015 (ip), vehicle: water) 167 % of control; (dose: 1.0 mg/kg/injection, schedule: Q01DX005 (ip), vehicle: water) 208 % of control; (dose: 1.0 mg/kg/injection, schedule: Q01DX015 (ip), vehicle: water) 152 % of control; (dose: 1.0 mg/kg/injection, schedule: Q04DX003 (ip), vehicle: water) 270 % of control; (dose: 2.0 mg/kg/injection, schedule: Q01DX001 (ip), vehicle: water) 197 % of control. Also, the T/C reads like this: (dose: 2.0 mg/kg/injection, schedule: Q04DX003 (ip), vehicle: water) 203 % of control; (dose: 4.0 mg/kg/injection, schedule: Q01DX001 (ip), vehicle: water) 240 % of control; (dose: 4.0 mg/kg/injection, schedule: Q04DX003 (ip), vehicle: saline) 107 % of control; (dose: 4.0 mg/kg/injection, schedule: Q04DX003 (ip), vehicle: water) 151 % of control; (dose: 4.0 mg/kg/injection, schedule: Q04DX003 (iv), vehicle: saline) 158 % of control; (dose: 8.0 mg/kg/injection, schedule: Q04DX003 (ip), vehicle: saline) 122 % of control. Besides, the T/C is, setting by setting: (dose: 8.0 mg/kg/injection, schedule: Q04DX003 (iv), vehicle: saline) 275 % of control; (dose: 16.0 mg/kg/injection, schedule: Q04DX003 (ip), vehicle: saline) 101 % of control.

In the case of `S=C(NCNC(=S)c1ccncc1)c1ccncc1`, the T/C by setting is: under setting [1], 104 % of control; (dose: 150.0 mg/kg/injection, schedule: Q04DX003 (ip), vehicle: saline with Tween-80) 103 % of control; (dose: 300.0 mg/kg/injection, schedule: Q04DX003 (ip), vehicle: saline with Tween-80) 106 % of control; (dose: 600.0 mg/kg/injection, schedule: Q04DX003 (ip), vehicle: saline with Tween-80) 87 % of control.

`O=C1CN(CCN2CC(=O)N(CN3CCOCC3)C(=O)C2)CC(=O)N1CN1CCOCC1`: the T/C by setting is: (dose: 18.75 mg/kg/injection, schedule: Q04DX003 (ip), vehicle: saline with Tween-80) 98 % of control; (dose: 37.5 mg/kg/injection, schedule: Q04DX003 (ip), vehicle: saline with Tween-80) 120 % of control; (dose: 37.5 mg/kg/injection, schedule: Q04DX003 (ip), vehicle: water) 88 % of control; under setting [1], 108 % of control; (dose: 75.0 mg/kg/injection, schedule: Q04DX003 (ip), vehicle: water) 102 % of control; (dose: 150.0 mg/kg/injection, schedule: Q04DX003 (ip), vehicle: water) 101 % of control.

As to `COC12[C@@H]3N[C@@H]3CN1C1=C(C(=O)C(NCCSSCCNC3=C(C)C(=O)C4=C(C3=O)C(COC(N)=O)[C@]3(OC)C5N[C@@H]5CN43)=C(C)C1=O)[C@@H]2COC(N)=O` (stereo not given in full), the T/C (dose: 1.57 mg/kg/injection, schedule: Q04DX003 (ip), vehicle: DMSO) is 121 % of control and the T/C (dose: 12.5 mg/kg/injection, schedule: Q04DX003 (ip), vehicle: DMSO) is 331 % of control.

As for `COC1=C(C)C(=O)C2=C(C1=O)C(CO)N1C(C#N)C3CC4C(C1C2N1CCOC41)N3C` (stereo not given), the T/C was 109 % of control (dose: 0.63 mg/kg/injection, schedule: Q04DX003 (ip), vehicle: acid diluted with saline); 122 % of control (dose: 0.63 mg/kg/injection, schedule: Q04DX003 (ip), vehicle: saline + alcohol); 123 % of control (dose: 1.25 mg/kg/injection, schedule: Q04DX003 (ip), vehicle: acid diluted with saline); 115 % of control (dose: 2.5 mg/kg/injection, schedule: Q04DX003 (ip), vehicle: acid diluted with saline); 168 % of control (dose: 2.5 mg/kg/injection, schedule: Q04DX003 (ip), vehicle: saline + alcohol).

`CCOc1ccc(C(C)c2cc3c(cc2OC)OCO3)cc1` (stereo not given): the T/C by setting is: (dose: 150.0 mg/kg/injection, schedule: Q04DX003 (ip), vehicle: distilled water + Tween-80) 177 % of control; (dose: 300.0 mg/kg/injection, schedule: Q04DX003 (ip), vehicle: distilled water + Tween-80) 161 % of control and 163 % of control; (dose: 600.0 mg/kg/injection, schedule: Q04DX003 (ip), vehicle: distilled water + Tween-80) 226 % of control and 252 % of control.

With `CC(=O)/C(=C\c1ccc(/C=C(\C(C)=O)C(=O)CCN(C)C)cc1)C(=O)CCN(C)C`, the T/C is, setting by setting: under setting [2], 94 % of control; under setting [3], 100 % of control; under setting [4], 105 % of control; under setting [5], 107 % of control; (dose: 800.0 mg/kg/injection, schedule: Q04DX003 (ip), vehicle: saline with Tween-80) 111 % of control.

Take `COc1cc2c(c(OC)c1OC)-c1cccc(=O)cc1C(NC(C)=O)CC2` (stereo not given): the T/C is 104 % of control (dose: 12.5 mg/kg/injection, schedule: Q04DX003 (ip), vehicle: saline); 122 % of control (dose: 25.0 mg/kg/injection, schedule: Q04DX003 (ip), vehicle: saline); 110 % of control (dose: 50.0 mg/kg/injection, schedule: Q04DX003 (ip), vehicle: saline); 106 % of control (dose: 100.0 mg/kg/injection, schedule: Q04DX003 (ip), vehicle: saline); 103 % of control (dose: 200.0 mg/kg/injection, schedule: Q04DX003 (ip), vehicle: saline).

Turning to `CC1c2ccccc2CC(CCN(C)C)c2ccccc21` (stereo not given), the T/C runs as follows: (dose: 12.5 mg/kg/injection, schedule: Q04DX003 (ip), vehicle: saline with Tween-80) 109 % of control; under setting [6], 114 % of control; under setting [2], 114 % of control; under setting [3], 109 % of control.

With `NC(=S)c1ncn(C2OC(COC=O)C(OC=O)C2OC=O)c1NC=O` (stereo not given), the T/C reads like this: under setting [2], 109 % of control; under setting [4], 172 % of control; under setting [5], 188 % of control.

Turning to `O=C(C/C(=N\C(=S)Nc1cc(C(F)(F)F)ccc1Cl)NO)N1CCCC1`, the T/C was 115 % of control under setting [2], 96 % of control under setting [3] and 108 % of control under setting [4].

As to `CCC(=O)Sc1ccccc1C(=O)Nc1ccc(Cl)cc1`, the T/C under setting [6] was 99 % of control, the T/C under setting [2] is 107 % of control, the T/C under setting [3] was 110 % of control and the T/C under setting [4] is 113 % of control.
